From ChEMBL document CHEMBL5303573, “Mapping human microbiome drug metabolism by gut bacteria and their genes” (Nature, 2019)

Columns and labels:
[1] = The drug is tested on Blautia luti strain: DSM14534 for biotransformation. The drug concentrations were measured before and after a 12-h incubation by liquid-chromatography-coupled mass spectrometry (LC–MS); format: ADME; set-up: dose 2 uM, timepoint 0 vs 12 hours; conditions: 2 µM
[2] = The drug is tested on Clostridium scindens strain: ATCC35704 for biotransformation. The drug concentrations were measured before and after a 12-h incubation by liquid-chromatography-coupled mass spectrometry (LC–MS); conditions: 2 µM
[3] = The drug is tested on Clostridium symbiosum strain: ATCC14940 for biotransformation. The drug concentrations were measured before and after a 12-h incubation by liquid-chromatography-coupled mass spectrometry (LC–MS); conditions: 2 µM
[4] = The drug is tested on Eubacterium rectale strain: ATCC33656 for biotransformation. The drug concentrations were measured before and after a 12-h incubation by liquid-chromatography-coupled mass spectrometry (LC–MS); conditions: agathobacter rectalis, 2 µM
[5] = The drug is tested on Clostridium sp. strain: fecal isolate for biotransformation. The drug concentrations were measured before and after a 12-h incubation by liquid-chromatography-coupled mass spectrometry (LC–MS); conditions: 2 µM
[6] = The drug is tested on Bacteroides finegoldii strain: DSM17565 for biotransformation. The drug concentrations were measured before and after a 12-h incubation by liquid-chromatography-coupled mass spectrometry (LC–MS); conditions: 2 µM
[7] = The drug is tested on Bacteroides caccae strain: ATCC43185 for biotransformation. The drug concentrations were measured before and after a 12-h incubation by liquid-chromatography-coupled mass spectrometry (LC–MS); conditions: 2 µM
[8] = The drug is tested on Escherichia coli strain: BW25113 for biotransformation. The drug concentrations were measured before and after a 12-h incubation by liquid-chromatography-coupled mass spectrometry (LC–MS); conditions: 2 µM
[9] = bacteroides thetaiotaomicron, 12 h, 2 µM
Description: The drug is tested on Bacteroides thetaiotaomicron strain: VPI-5482 for biotransformation. The drug concentrations were measured before and after a 12-h incubation by liquid-chromatography-coupled mass spectrometry (LC–MS)

[10] = The drug is tested on Bacteroides fragilis strain: ATCC43859 for biotransformation. The drug concentrations were measured before and after a 12-h incubation by liquid-chromatography-coupled mass spectrometry (LC–MS); conditions: 2 µM
[11] = bacteroides fragilis, 12 h, 2 µM
Description: The drug is tested on Bacteroides fragilis strain: DS-208 for biotransformation. The drug concentrations were measured before and after a 12-h incubation by liquid-chromatography-coupled mass spectrometry (LC–MS)

[12] = The drug is tested on Enterobacter cancerogenus strain: ATCC35316 for biotransformation. The drug concentrations were measured before and after a 12-h incubation by liquid-chromatography-coupled mass spectrometry (LC–MS); conditions: 2 µM
[13] = The drug is tested on Bifidobacterium breve strain: DSM20213 for biotransformation. The drug concentrations were measured before and after a 12-h incubation by liquid-chromatography-coupled mass spectrometry (LC–MS); conditions: 2 µM
[14] = The drug is tested on Eubacterium hallii strain: DSM3353 for biotransformation. The drug concentrations were measured before and after a 12-h incubation by liquid-chromatography-coupled mass spectrometry (LC–MS); conditions: anaerobutyricum hallii, 2 µM
[15] = The drug is tested on Subdoligranulum variabile strain: DSM15176 for biotransformation. The drug concentrations were measured before and after a 12-h incubation by liquid-chromatography-coupled mass spectrometry (LC–MS); conditions: 2 µM
[16] = parabacteroides distasonis, 12 h, 2 µM
Description: The drug is tested on Parabacteroides distasonis strain: ATCC8503 for biotransformation. The drug concentrations were measured before and after a 12-h incubation by liquid-chromatography-coupled mass spectrometry (LC–MS)

[17] = bacteroides fragilis, 12 h, 2 µM; remark: listed apart in the source
Description: The drug is tested on Bacteroides fragilis strain: NCTC 9343 for biotransformation. The drug concentrations were measured before and after a 12-h incubation by liquid-chromatography-coupled mass spectrometry (LC–MS)

[18] = The drug is tested on Bacteroides ovatus strain: ATCC8483 for biotransformation. The drug concentrations were measured before and after a 12-h incubation by liquid-chromatography-coupled mass spectrometry (LC–MS); conditions: 2 µM
[19] = bacteroides thetaiotaomicron, 12 h, 2 µM; remark: listed apart in the source
Description: The drug is tested on Bacteroides thetaiotaomicron strain: 3731 for biotransformation. The drug concentrations were measured before and after a 12-h incubation by liquid-chromatography-coupled mass spectrometry (LC–MS)

SMILES	Bacterial Biotransformation [1]	Bacterial Biotransformation [2]	Bacterial Biotransformation [3]	Bacterial Biotransformation [4]	Bacterial Biotransformation [5]	Bacterial Biotransformation [6]	Bacterial Biotransformation [7]	Bacterial Biotransformation [8]	Bacterial Biotransformation [9]	Bacterial Biotransformation [10]	Bacterial Biotransformation [11]	Bacterial Biotransformation [12]	Bacterial Biotransformation [13]	Bacterial Biotransformation [14]	Bacterial Biotransformation [15]	Bacterial Biotransformation [16]	Bacterial Biotransformation [17]	Bacterial Biotransformation [18]	Bacterial Biotransformation [19]
c1ccc2[nH]c(-c3cscn3)nc2c1 [THIABENDAZOLE]	Compound NOT metabolized	Compound NOT metabolized	Compound NOT metabolized	Compound NOT metabolized	Compound NOT metabolized	Compound NOT metabolized	Compound NOT metabolized	Compound NOT metabolized	Compound NOT metabolized	Compound NOT metabolized	Compound NOT metabolized	Compound NOT metabolized	Compound NOT metabolized	Compound NOT metabolized	Compound NOT metabolized	–	–	–	–
O=c1n(CCCN2CCN(c3cccc(Cl)c3)CC2)nc2ccccn12 [TRAZODONE]	Compound NOT metabolized	Compound NOT metabolized	Compound NOT metabolized	Compound NOT metabolized	–	Compound NOT metabolized	Compound NOT metabolized	Compound NOT metabolized	Compound NOT metabolized	Compound NOT metabolized	Compound NOT metabolized	Compound NOT metabolized	Compound NOT metabolized	Compound NOT metabolized	Compound NOT metabolized	Compound NOT metabolized	Compound NOT metabolized	Compound NOT metabolized	Compound NOT metabolized
Cc1nc(-c2ccc(OCC(C)C)c(C#N)c2)sc1C(=O)O [FEBUXOSTAT]	Compound NOT metabolized	Compound NOT metabolized	Compound NOT metabolized	Compound NOT metabolized	Compound NOT metabolized	Compound NOT metabolized	–	Compound NOT metabolized	Compound NOT metabolized	Compound metabolized	Compound NOT metabolized	Compound NOT metabolized	–	Compound NOT metabolized	Compound NOT metabolized	Compound NOT metabolized	Compound NOT metabolized	Compound NOT metabolized	Compound NOT metabolized
